Results on one compound are retold here after patent publication US20090191580A1, “METHOD OF SCREENING USING c-MET, A NOVEL SUBSTRATE FOR GAMMA-SECRETASE” (Eisai R & D Management Co., Ltd., priority 2007, published 2009).

The structures appear in SMILES notation.

The test has as its system cleavage of c-Met by γ-secretase. The experiment in a line: Analysis of c-Met processing in c-Met-transfected 293/EBNA-1 cell strain (Western blotting with anti-HA antibody). It is filed as cell-based, rat c-Met in HEK293 (293/EBNA-1) cells. Set-up: dose or concentration left out as unconfirmed. The note with it: Compound E added to culture broth, cultured another day, rat c-Met-HA transfected 293/EBNA-1 (HEK293) cells. The protocol: Whether or not c-Met is a substrate for γ-secretase was evaluated using HEK293 cells expressing a gene encoding c-Met with an HA tag added to its C-terminus, in the presence of a γ-secretase inhibitor. As the γ-secretase inhibitor, (2S)-2-{[(3,5-difluorophenyl)acetyl]amino}-N-[(3S)-1-methyl-2-oxo-5-phenyl-2,3-dihydro-1H-1,4-benzodiazepin-3-yl]propanamide (hereinafter, sometimes referred to as “Compound E”) (Alexis Biochemicals) was used.
293/EBNA-1 cell strain (Invitrogen) was cultured in 10% FBS (Hyclone)/DMEM (Invitrogen) under 5% CO2 at 37° C., followed by transfection thereinto of the gene encoding rat c-Met with an HA tag added to its C-terminus using Lipofectamine 2000 (Invitrogen). After one day culture under the same conditions, […] Compound E (Alexis Biochemicals) was added to the culture broth. Cells were cultured for another day under the same conditions. Then, the transfected HEK293 cells were collected with PBS (Sigma) and sonicated with a sonicator (Taitec VP-5S) to disrupt cells. Then, the quantity of protein was determined with Protein Assay Kit (BioRad). Samples (2 μl each) were taken from proteins obtained from Compound E-added cells and Compound E-not added cells, respectively, and subjected to SDS-PAGE, followed by Western blotting with an anti-HA antibody (Roche) (final concentration: 0.2 μg/ml). […]

In the case of `C[C@H](NC(=O)Cc1cc(F)cc(F)c1)C(=O)N[C@H]1N=C(c2ccccc2)c2ccccc2N(C)C1=O` [Compound E, (2S)-2-{[(3,5-difluorophenyl)acetyl]amino}-N-[(3S)-1-methyl-2-oxo-5-phenyl-2,3-dihydro-1H-1,4-benzodiazepin-3-yl]propanamide], the “c-Met undegraded product (CTF band around 50 kDa) on Western blot” value is “a band around 50 kDa (CTF: C terminal fragment) was accumulated specifically as a c-Met undegraded product”.
